According to patent publication US20240350489A1, “LOU064 FOR TREATING MULTIPLE SCLEROSIS” (NOVARTIS AG, priority 2021, published 2024):
Entries after “also recorded” stand apart in the source; their conditions may differ.

Assays:
[1] = single/multiple doses 0.5 mg to 600 mg up to 18 days; 100 and 200 mg b.i.d.; cited from earlier work
[2] = test system: MOG-specific immunoglobulin responses; test: MOG-specific autoantibodies in serum, RatMOG EAE; type: in vivo, mouse; settings: 30 mg/kg b.i.d., day 21, vs vehicle
Description: In immunized mice, treated with either vehicle or LOU064, the MOG-specific autoantibody levels, total IgM and IgG subclasses were markedly higher as compared to naive mice. LOU064 treatment had no effect on the MOG-specific IgM and IgG responses in serum compared to vehicle treated mice.

HumanMOG-induced EAE = HumanMOG-induced EAE in C57BL/6 mouse, prophylactic b.i.d. dosing; type: in vivo
Description: There is no known naturally occurring MS-like disease in rodents or non-human primates. Following immunization of susceptible rodent strains with CNS-specific myelin proteins emulsified in complete Freund's adjuvant (CFA) an induced disease model develops. Experimental autoimmune encephalitis (EAE) mimics many of the pathological phenotypes of MS with focal, demyelinating lesions of the CNS white matter. In the C57BL/6 mouse there are two variants of myelin oligodendrocyte glycoprotein (MOG)-induced EAE depending on whether the human (HumanMOG) or rat (RatMOG) recombinant protein sequences are used (Lyons J.A. et al. (1999) European Journal of Immunology 29:3432-3439; Oliver A. R. et al. (2003) J Immunology 171: 462-468). Minor amino acid residue differences result in HumanMOG-induced EAE being exquisitely B-cell dependent as the APC, whilst RatMOG-induced EAE is B-cell independent and requires dendritic cells as the dominant APC population (Lyons et al 1999; Molnarfi N. et al. (2013) Journal of Experimental Medicine 210(13):2921-2937).
In HumanMOG-induced EAE the BTK inhibitor LOU064 was dosed twice daily (b.i.d.) at 3 mg/kg or 30 mg/kg at 12 hr intervals. Prophylactic dosing of LOU064 was initiated 6 hours prior to MOG/CFA immunization and continued until study end.
EAE was assessed using a scoring system, outlined in Table 1. Clinical scores and body weights were assessed daily throughout the experiment.
According to the animal regulations, humane endpoints for EAE mice were score 3 (>7 days), score 3.5 (>3 days), or immediately if score 4 was reached.
Using a short eight-day (pre-disease onset) EAE protocol, the immune priming mechanisms during the HumanMOG model were investigated.

[3] = test system: canine P-gp knockout MDCK cell monolayers (MDCK-LE V2); test: Passive permeability, canine P-gp knockout MDCK cell monolayers (MDCK-LE V2); type: in vitro ADME; settings: MDCK trans-well assay
Experimental: (§1) Passive permeability measurement using canine P-gp knockout MDCK cell monolayers (MDCK-LE V2)
(§2) A cell-based assay was used to assess the passive permeability of drug candidates in the context of gastro-intestinal absorption. A MDCK cell line where the endogenous canine Mdr1 (cMdr1) gene encoding P-gp has been knocked out is grown to form monolayers on a 96-well Transwell plate. Compounds are loaded in cassettes of three at a concentration of 10 μM each to the apical compartment and following a period of two hours incubation the amount of compound appearing in the basal chamber is quantitated by tandem mass spectrometry.
(§3) In particular, a MDCK cell line was generated by knocking-out the endogenous canine Mdr1 (cMdr1) gene. A subclone of this cell line was used to relate passive permeability to the fraction absorbed in human intestine using a set of 37 commercial compounds for which the fraction absorbed was known. The assay is able to estimate the fraction absorbed in human based on the Papp measured in the assay.
(§4) Samples were subject to RapidFire/MS/MS analysis and LC/MS/MS analysis. […]

[4] = as above; type: in vitro ADME; settings: dog, MDCK; 10 μM apical, two hours incubation
Experimental: as §1, §2, §3, §4

[5] = Co-administration with oral contraceptives; type: in vivo; settings: co-administered ethinylestradiol or levonorgestrel
BTK [6] = biological target: T1, BTK (Homo sapiens, UniProt Q06187); test: BTK occupancy in blood as biomarker for dose selection; type: in vivo; settings: low doses
T1 construct: simulate BTK occupancy in human spleen/tissues across a range of doses; from tissue; host or cells: human spleen / peripheral tissues (simulated, not sampled)
T1 sequence (Q06187 whole entry): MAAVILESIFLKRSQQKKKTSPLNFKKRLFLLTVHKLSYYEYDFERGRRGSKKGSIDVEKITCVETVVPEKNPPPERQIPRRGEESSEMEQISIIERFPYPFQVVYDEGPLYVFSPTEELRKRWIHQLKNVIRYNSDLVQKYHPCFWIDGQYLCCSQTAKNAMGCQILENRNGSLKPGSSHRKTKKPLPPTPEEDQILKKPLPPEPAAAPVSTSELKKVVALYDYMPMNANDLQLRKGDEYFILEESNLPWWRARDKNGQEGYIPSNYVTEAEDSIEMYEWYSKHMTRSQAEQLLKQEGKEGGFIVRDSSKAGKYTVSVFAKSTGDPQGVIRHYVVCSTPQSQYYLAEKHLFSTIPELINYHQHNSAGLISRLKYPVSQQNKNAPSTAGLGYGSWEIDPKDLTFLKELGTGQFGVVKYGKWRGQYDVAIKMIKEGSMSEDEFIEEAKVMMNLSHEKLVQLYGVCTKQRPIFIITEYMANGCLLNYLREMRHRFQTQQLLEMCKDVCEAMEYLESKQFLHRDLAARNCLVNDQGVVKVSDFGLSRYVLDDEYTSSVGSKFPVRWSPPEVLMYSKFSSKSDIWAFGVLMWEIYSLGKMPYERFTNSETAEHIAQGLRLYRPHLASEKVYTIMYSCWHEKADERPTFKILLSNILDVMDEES
Description: BTK occupancy in blood is not an informative biomarker for the purpose of dose selection due to LOU064 pharmacological properties (irreversible binding). […] Occupancy in tissue may be more representative of the efficacy of LOU064.

[7] = 52-week open label extension study in CSU subjects, safety; settings: for safety signals / safety profile: 100 mg b.i.d. open-label, interim analyses
Experimental: In a 52-week open label extension study to evaluate the long-term safety and tolerability of LOU064 in eligible subjects with CSU who participated in the Phase 2b study the dose used was 100 mg b.i.d.

BTK [8] = biological target: T2, BTK (Mus musculus, UniProt P35991); test: Trough BTK occupancy in spleen, blood and brain, RatMOG EAE; type: in vivo; settings: 30 mg/kg b.i.d., 16 h after the last dose
T2 construct: BTK occupancy was assessed in brain homogenates that had been prepared for compound exposure analysis; from tissue; host or cells: spleen, inguinal lymph nodes, blood and brain homogenate of C57BL/6 EAE mice
T2 sequence (P35991 whole entry): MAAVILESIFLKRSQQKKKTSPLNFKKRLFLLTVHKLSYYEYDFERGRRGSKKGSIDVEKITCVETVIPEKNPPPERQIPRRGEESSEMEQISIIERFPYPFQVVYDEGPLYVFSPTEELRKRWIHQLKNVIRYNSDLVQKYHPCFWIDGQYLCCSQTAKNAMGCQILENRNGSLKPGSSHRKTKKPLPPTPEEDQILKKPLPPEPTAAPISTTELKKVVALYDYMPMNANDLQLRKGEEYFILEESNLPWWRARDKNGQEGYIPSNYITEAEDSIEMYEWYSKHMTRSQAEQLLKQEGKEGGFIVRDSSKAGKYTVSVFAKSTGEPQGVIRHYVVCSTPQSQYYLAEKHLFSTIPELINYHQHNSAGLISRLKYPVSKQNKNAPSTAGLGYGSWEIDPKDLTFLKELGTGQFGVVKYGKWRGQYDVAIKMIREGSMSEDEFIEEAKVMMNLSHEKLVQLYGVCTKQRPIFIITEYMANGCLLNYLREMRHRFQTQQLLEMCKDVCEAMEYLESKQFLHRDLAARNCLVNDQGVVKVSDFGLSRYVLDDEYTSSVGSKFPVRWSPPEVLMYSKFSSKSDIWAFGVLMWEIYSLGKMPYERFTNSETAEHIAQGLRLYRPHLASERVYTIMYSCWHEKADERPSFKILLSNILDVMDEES

BTK [9] = biological target: T3, BTK (Rattus norvegicus, UniProt Q5S255); settings: female rats, single oral dose of 3 mg/kg; cited from earlier work
T3 construct: from tissue; host or cells: blood and spleen of female rats
T3 sequence (Q5S255 1-660): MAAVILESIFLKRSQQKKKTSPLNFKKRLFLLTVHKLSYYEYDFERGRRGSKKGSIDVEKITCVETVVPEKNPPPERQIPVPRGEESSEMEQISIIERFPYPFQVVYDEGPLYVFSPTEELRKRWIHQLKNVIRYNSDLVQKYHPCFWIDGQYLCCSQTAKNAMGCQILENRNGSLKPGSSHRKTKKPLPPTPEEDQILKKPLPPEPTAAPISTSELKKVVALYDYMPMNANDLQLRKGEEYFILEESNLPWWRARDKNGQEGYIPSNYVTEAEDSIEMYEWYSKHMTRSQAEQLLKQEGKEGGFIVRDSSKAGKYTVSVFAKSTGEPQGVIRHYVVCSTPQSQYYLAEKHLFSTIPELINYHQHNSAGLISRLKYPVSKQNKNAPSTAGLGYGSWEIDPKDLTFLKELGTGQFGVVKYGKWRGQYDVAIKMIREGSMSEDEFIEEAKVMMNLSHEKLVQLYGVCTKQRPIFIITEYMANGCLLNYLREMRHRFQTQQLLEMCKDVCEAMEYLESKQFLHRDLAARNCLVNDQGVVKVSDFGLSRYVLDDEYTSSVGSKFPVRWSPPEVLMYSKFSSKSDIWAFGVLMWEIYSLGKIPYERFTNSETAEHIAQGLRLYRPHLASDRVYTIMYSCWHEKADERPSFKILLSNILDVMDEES

[10] = 100 mg B.I.D., N = 100, interim cut off 31 Aug. 2020
[11] = ES, 100 mg b.i.d., N = 183, listed as remibrutinib

C=CC(=O)N(C)CCOc1c(N)ncnc1-c1cc(F)cc(NC(=O)c2ccc(C3CC3)cc2F)c1C [LOU064, N-(3-(6-amino-5-(2-(N-methylacrylamido)ethoxy)pyrimidin-4-yl)-5-fluoro-2-methylphenyl)-4-cyclopropyl-2-fluorobenzamide]
short-term safety [1]: has been shown in Phase I clinical studies | MOG-specific IgM and IgG responses in serum [2]: had no effect; also recorded: did not affect | neurologic symptoms and EAE-induced weight loss (HumanMOG-induced EAE; 3 mg/kg b.i.d.): only a fairly weak reduction | cumulative disease burden (HumanMOG-induced EAE; 30 mg/kg b.i.d.): significantly reduced | disease incidence / frequency of EAE onset (HumanMOG-induced EAE; 30 mg/kg b.i.d.): reduction in the frequency of EAE onset; also recorded: significantly reduced disease incidence | peak EAE score (HumanMOG-induced EAE; 30 mg/kg b.i.d.): significantly reduced | EAE clinical symptoms / EAE scores (HumanMOG-induced EAE; 30 mg/kg p.o. b.i.d.): improvement in EAE scores; also recorded: significantly reduced clinical symptoms of EAE; also recorded: highly effective at inhibiting HumanMOG-induced EAE induction; also recorded: strongly reduced neurologic symptoms | inflammation-induced cachexia / daily body weight change (HumanMOG-induced EAE; 30 mg/kg p.o. b.i.d.): significantly improved; also recorded: inhibited inflammation-induced cachexia; also recorded: strongly reduced | tolerability (HumanMOG-induced EAE; 3 and 30 mg/kg p.o. b.i.d.): well tolerated in all animals | adverse events (HumanMOG-induced EAE; mouse, in vivo): no adverse events were observed with either dose group | weight gain in immunized mice (inflammation-induced cachexia) (HumanMOG-induced EAE; short eight-day pre-EAE protocol, 30 mg/kg twice daily): improved weight gain | recovery [3]: high recovery | Papp A→B at 2 h, 10 μM [4]: 37.3 ×10⁻⁶ cm/s | impact on exposure and efficacy of oral contraceptives [5]: without a major impact on their exposure and efficacy | BTK occupancy in blood (BTK [6]): reaches full occupancy even at low doses | Death [7, 10]: 0 n | Discontinued study due to an SAE(s) [7, 10]: 0 n | safety signals / safety profile [7]: No safety signal has been observed; also recorded: no safety signals have been observed; also recorded: well tolerated and with a favorable safety profile | safety signals / safety profile ([7]; listed as Remibrutinib): no new safety signals | dose-limiting liver enzyme elevations and other off-target-effects ([7]; 100 mg b.i.d. over an extended period of time): does not induce any dose-limiting liver enzyme elevations and other off-target-effects | AE Headache (PT) ([7]; 100 mg b.i.d., N = 100 interim): 6% | AE Infections and infestations (SOC) ([7]; 100 mg b.i.d., N = 100 interim): 14% | AE Skin and subcutaneous tissue disorders (SOC) ([7]; 100 mg b.i.d., N = 100 interim): 13% | AE diarrhea (PT) ([7]; 100 mg b.i.d., N = 100 interim): 4% | AE dizziness (PT) ([7]; 100 mg b.i.d., N = 100 interim): 3% | AE gastroenteritis (PT) ([7]; 100 mg b.i.d., N = 100 interim): 3% | bleeding events or events under SOC Blood and lymphatic system disorders ([7]; 100 mg b.i.d., N = 100 interim): no bleeding events | ECG findings or QT of >500 ms ([7]; ES and CS, any patient): no significant ECG findings or QT of >500 ms noted in any patient | AE Headache (PT) [7, 11]: 6.6% | AE Infections and infestations (SOC) [7, 11]: 23.0% | AE Skin and subcutaneous tissue disorders (SOC) [7, 11]: 17.5% | Discontinued study treatment due to AE(s) [7, 11]: 6 n | Patients with SAE(s) [7, 11]: 4 n | AE Skin and subcutaneous tissue disorders (SOC) ([7]; ES, 100 mg b.i.d., N=183): 32 n | Incidence of AESI bleeding ([7]; ES, 100 mg b.i.d., N=183): 4.4% | Incidence of AESI cytopenias ([7]; ES, 100 mg b.i.d., N=183): 0.5% | Incidence of AESI infections ([7]; ES, 100 mg b.i.d., N=183): 23% | deaths ([7]; ES, 100 mg b.i.d., N=183): no deaths | patients with isolated ALT>3xULN ([7]; ES, N=183, normalized within 4 weeks): 1 patient | BTK occupancy in brain (BTK [8]): intermediate levels; also recorded: only partial BTK occupancy in the brain | BTK occupancy in spleen and blood (BTK [8]): in a range indicative of maximal BTK occupancy; also recorded: full BTK occupancy in blood and spleen | BTK occupancy in blood and spleen (BTK [9]): full BTK occupancy
